What all share (assay type): in vivo, rat
The test system of data set [1] is Sardinian Alcohol preferring rats (sP). As to the kind of experiment: Spontaneous alcohol intake in non deprived sP rats. As to the method: (§1) Tests were carried out in Sardinian Alcohol preferring rats (sP), i.e. a rodent line genetically selected for their spontaneous alcohol consume. These animals were adopted as the main specific animal model in the research program due to the fact that these rats (kept in a free-choice regimen between water and a 10% ethanol solution) consume large amounts of alcohol (6-7 g/Kg/day), sharing a great preference for […] (80-100%).
(§2) Under the standard, these rats are subjected to homecage two-bottle free choice regimen between 10% alcohol and water with unlimited access (24 h/day) and they show these features: daily intake of about 6 g/Kg of alcohol; preference ratio (alcohol solution vs total fluids) above 80%; fractioning of daily alcohol intake in 3-4 binges; achievement of BALs (Blood Alcohol Levels) above 50 mg % at each binge; induction of pharmaceutical effects (anxiolysis, motor stimulation) and regulation by a central, hedonic set-point mechanism.
1. Spontaneous Alcohol Intake in Non Deprived sP Rats
According to this model, the alcohol intake in a two bottles free-choice regimen represents the “active drinking” phase of human alcoholism. Therefore the tested active compounds should decrease the propension of rats to consume alcohol. […] In FIG. 8A the results of a single experiment are shown. Specifically 10, 20, 25 and 50 mg/kg doses of polymorphic Form A were administered and the alcohol intake was evaluated.

The test system is the same in data set [2]. As to the kind of experiment: Alcohol Deprivation Effect in deprived sP rats. The method, then:
as §1, §2
2. Alcohol Deprivation Effect in Deprived sP Rats
To further characterize the anti-alcohol effect of polymorphic Form A, this compound was evaluated on the Alcohol Deprivation Effect (ADE). […] Intake was measured 1 hour after lights off.

The subject of data set [3] is rats. Kind of data set: Irwin's test and body temperature in rats. The method, then:
(§3) The possible adverse effects of polymorphic Form A on the CNS, cardiovascular, respiratory and immune functions were evaluated in vitro and in vivo (rats and dogs) in different experimental models. In the in vivo tests, the tested compound was always given by single oral administration at the doses of 100, 300 and 1000 mg/kg.
Neurobehavioural effects of polymorphic Form A have been investigated according to the Irwin Test by using a standard observation battery, which allows the assessment of both peripheral and central nervous system activities (e.g. motor activity, motor co-ordination, somatic sensory/motor reflex responses, autonomic responses); body temperature was measured by means of an electronic thermometer.

The test system of data set [4] is rats. As to the kind of experiment: Hexobarbital sleeping time in rats. The method, then:
as §3
The test consists in the measurement of the duration of hexobarbital-induced sleep; substances with a sedative or antisleep action cause increase or decrease respectively in the duration of hexobarbital induced sleep.

In data set [5] the test system is rats. As to the kind of experiment: Proconvulsant activity in rats (pentylenetetrazol). The note with it: with pentylenetetrazol. The method, then:
as §3

The subject of another data set is immune system. Kind of data set: PCF test (Plaque Forming Cells) in rats. As to the method:
A possible effect of polymorphic Form A on the immune system was evaluated by using the method system of Plaque Forming Cells (PCF) in the rat, following oral administration to rats for 28 days at the doses of 150, 250 and 500 mg/kg. The method is based on the stimulation of the immune system with an antigenic agent (sheep's red blood cells) and on the evaluation of the effect of the test item on the immune response. The immune response was assessed by measuring the proportion of splenocytes which produced antibodies against the antigenic agent (Plaque Forming Cells) in presence of complement. […] In fact, statistical analysis evidenced a significativity at 150 mg/kg, but not at 250 mg/kg; these findings might indicate that the effects is observed at these doses could be due to the variability normally present in this test as heterogeneity in immune response is often seen and it is likely to be related to individual differences in immune sensitivity, […]

Regarding `COCCCC(=O)NCc1ccc(C(F)(F)F)cc1` [Polymorphic Form A, N-[4-(trifluoromethyl)benzyl]-4-methoxybutyramide], the Alcohol intake entry in data set [1] (10 mg/kg, single experiment of FIG. 8A) is “significantly reduced alcohol intake”; in data set [1] (10-100 mg/kg, intragastric acute administration), “decreases the alcohol intake”. Moreover, the Food intake entry in data set [1] (sP rats, data not reported) is given as “normal food intake”. The Water intake result in data set [1] (sP rats, data not reported) is “compensatory increase of water intake”. Moreover, the “Extra-consume of alcohol (ADE)” value in data set [2] (5 mg/Kg) is “completely abolish the extra-consume of alcohol”. In data set [2] (dose range 5-100 mg/Kg, given 30 min before lights off, intake 1 hour after lights off), the “Alcohol Deprivation Effect (ADE)” value is “completely suppressed ADE effect”. Further, the Body temperature result is “not affected” with rats [3] (100 mg/kg single oral); “significant decrease in body temperature” in the data set with rats [3] (higher doses (300 and 1000 mg/kg), up to four hours). In addition, in the data set on rats [3] (100 mg/kg single oral), the “Spontaneous locomotor activity (Irwin test)” value was “transient decrease in spontaneous locomotor activity”. Also, the “Posture / neurobehavioural signs (Irwin test)” value in the data set on rats [3] (1000 mg/kg single oral, all the effects were reversible) is “tip toe position, ataxic and subsequently a lying recumbent or flattened position”. In the data set with rats [3] (higher doses (300 and 1000 mg/kg) single oral, with myorelaxant effect and decrease in awareness), the “Effect on locomotion (Irwin test)” value was “more marked and more long lasting”. Besides, the “Time taken to fall asleep and duration of the sleep” value with rats [4] (highest dose (1000 mg/kg) oral) is “significant decrease of the time taken to fall asleep and of the duration of the sleep”; with rats [4] (lowest dose (100 mg/kg) oral) it was “No statistical significant effect”. Also, the Sleep duration entry in the data set on rats [4] (intermediate dose (300 mg/kg) oral) is “slight decrease in sleep duration”. For the same compound, the “Time of occurrence of seizures” value with rats [5] (100 and 300 mg/kg oral) is recorded as “increase in the time of occurrence of seizures”. The Proconvulsant effect entry with rats [5] (all the doses (100, 300, 1000 mg/kg oral)) was “no statistical significant proconvulsant effect”. In addition, the “Immunosuppressant activity (Plaque Forming Cells)” value in the data set with immune system (500 mg/kg oral, 28 days) was “clear-cut”; in the data set with immune system (150 and 250 mg/kg oral, 28 days), “comparable borderline effect”; in the data set with immune system (oral, 28 days, 150, 250 and 500 mg/kg), “slight and not dose-dependent immunosuppressant activity”.
